# Experiments:
# MERS-CoV = assay: microbe, parasite or virus in culture; format: cell-based, MERS virus (MERS-CoV/KOR/KNIH/002_05_2015); details: Middle East respiratory syndrome-related coronavirus, Huh-7, 72 h, read-out: EC50 MERS-CoV
# DENV = assay: Reduction in viral infection, dengue virus in Vero cells, immunofluorescence (4G2 antibody); format: cell-based, Dengue virus New Guinea C (NGC); details: 72 h, read-out: EC50 DENV
# FIPV = assay: Cytopathic effect reduction, FIPV in CRFK cells, MTT; format: cell-based, feline infectious peritonitis virus (FIPV); details: Alphacoronavirus 1, CRFK, 72 h, read-out: EC50 FIPV
# MRC-5 cells = details: human
# in vitro [1] = details: human
# in vitro [2] = details: cat
# [3] = Cytotoxicity (CC50) in Vero cells; details: African green monkey
# Influenza virus B/Lee/40 = assay: Cytopathic effect reduction, influenza B Lee in MDCK cells, MTT; format: cell-based; details: for Selectivity index FluB Lee: CC50/EC50; for EC50: MDCK, 72 h, read-out: Anti-Flu activity EC50 FluB Lee
# hCoV (229E) = assay: microbe, parasite or virus in culture; format: cell-based, Human coronavirus hCoV 229E; details: MRC5, 72 h, read-out: EC50 hCoV (229E)
# hCoV (OC43) = assay: Cytopathic effect reduction, hCoV OC43 in MRC-5 cells, MTT; format: cell-based, Human coronavirus hCoV OC43; details: Betacoronavirus 1, OC43, MRC5, 72 h, read-out: EC50 hCoV (OC43)
# in vitro [4] = details: human; remark: listed apart in the source
# in vitro [5] = details: dog
# CHIKV = assay: Cytopathic effect reduction, Chikungunya virus in Vero cells, MTT; format: cell-based; details: 72 h, read-out: EC50 CHIKV
# ZIKV = assay: Reduction in viral infection, zika virus in Vero cells, immunofluorescence (4G2 antibody); format: cell-based, Zikavirus (MR766); details: 72 h, day 3 after infection
# [6] = CC50 (DENV), Vero cells, DENV test
# [7] = CC50 (CHIKV), Vero cells, CHIKV test, MTT
SMILES,EC50 (MERS-CoV),EC50 (DENV),EC50 (FIPV),CC50 (MRC-5 cells),CC50 at 3 days (in vitro [1]),CC50 (in vitro [2]),"CC50 at 3 days [3, 6]",Selectivity index FluB Lee (Influenza virus B/Lee/40),EC50 (Influenza virus B/Lee/40),EC50 (hCoV (229E)),EC50 (hCoV (OC43)),CC50 (in vitro [4]),CC50 at 3 days (in vitro [5]),EC50 (CHIKV),"CC50 at 3 days [3, 7]","CC50 at 3 days ([3]; CC50, Vero cells, ZIKV test)",EC50 (ZIKV)
"O=C(Nc1ccn([C@@H]2O[C@H](CO)[C@@H](O)C2(F)F)c(=O)n1)c1cccnn1 [Example 5, N-(1-((2R,4R,5R)-3,3-difluoro-4-hydroxy-5-(hydroxymethyl)tetrahydrofuran-2-yl)-2-oxo-1,2-dihydropyrimidin-4-yl)pyridazine-3-carboxamide]",1.4 µM,0.94 µM,8.5 µM,> 100 µM,> 100 µM,> 100 µM,> 100 µM,>142.9,2.1 µM,8.9 µM,17.2 µM,> 100 µM,> 100 µM,,,,
"Cc1ccc(C(=O)Nc2ccn([C@@H]3O[C@H](CO)[C@@H](O)C3(F)F)c(=O)n2)cn1 [Example 4, N-(1-((2R,4R,5R)-3,3-difluoro-4-hydroxy-5-(hydroxymethyl)tetrahydrofuran-2-yl)-2-oxo-1,2-dihydropyrimidin-4-yl)-6-methylnicotinamide]",2.2 µM,0.71 µM,8.1 µM,> 100 µM,> 100 µM,> 100 µM,> 100 µM,>157.9,1.9 µM,11.1 µM,> 100 µM,> 100 µM,> 100 µM,,,,
"N#Cc1ccc(C(=O)Nc2ccn(C3O[C@H](CO)[C@@H](O)[C@H]3F)c(=O)n2)nc1 (stereo in doubt) [Example 37, 5-cyano-N-(1-((2S,3R,4R,5R)-3-fluoro-4-hydroxy-5-(hydroxymethyl)tetrahydrofuran-2-yl)-2-oxo-1,2-dihydropyrimidin-4-yl)picolinamide]",> 100 µM,> 100 µM,,,> 100 µM,,> 100 µM,>6.6,15.1 µM,,,,> 100 µM,51.7 µM,> 100 µM,> 100 µM,> 100 µM
"O=C(Nc1ccn(C2O[C@H](CO)[C@@H](O)[C@H]2F)c(=O)n1)c1ccc([N+](=O)[O-])cn1 (stereo in doubt) [Example 30, N-(1-((2S,3R,4R,5R)-3-fluoro-4-hydroxy-5-(hydroxymethyl)tetrahydrofuran-2-yl)-2-oxo-1,2-dihydropyrimidin-4-yl)-5-nitropicolinamide]",> 100 µM,77.9 µM,,,> 100 µM,,> 100 µM,>15.4,6.5 µM,,,,> 100 µM,62.5 µM,> 100 µM,> 100 µM,> 100 µM
"Nc1ccc(C(=O)Nc2ccn(C3O[C@H](CO)[C@@H](O)[C@H]3F)c(=O)n2)nc1 (stereo in doubt) [Example 31, 5-Amino-N-(1-((2S,3R,4R,5R)-3-fluoro-4-hydroxy-5-(hydroxymethyl)tetrahydrofuran-2-yl)-2-oxo-1,2-dihydropyrimidin-4-yl)picolinamide]",> 100 µM,> 100 µM,,,> 100 µM,,> 100 µM,,,,,,,,,> 100 µM,57.6 µM
"O=C(Nc1ccn([C@@H]2O[C@H](CO)[C@@H](O)C2(F)F)c(=O)n1)c1cccnc1 [Example 1, N-(1-((2R,4R,5R)-3,3-difluoro-4-hydroxy-5-(hydroxymethyl)tetrahydrofuran-2-yl)-2-oxo-1,2-dihydropyrimidin-4-yl)nicotinamide]",10.4 µM,3.42 µM,25 µM,> 100 µM,> 100 µM,56 µM,> 100 µM,>34.9,8.6 µM,4.6 µM,76 µM,> 100 µM,> 100 µM,,,,
